In patent US20260130933A1, “PHARMACEUTICAL COMPOSITION FOR PREVENTION OR TREATMENT OF NEPHROPATHY AND/OR DIABETES MELLITUS, COMPRISING ENAVOGLIFLOZIN” (DAEWOONG PHARMACEUTICAL CO., LTD., priority 2022, published 2026):

Assay: Example 3: phase 3 trial, enavogliflozin 0.3 mg vs dapagliflozin 10 mg once a day for 24 weeks added to metformin and gemigliptin in patients with type 2 diabetes (same endpoints, rescue drug)
Assay type: in vivo, human
Description: 1) when Metformin (≥1,000 mg/Day) was Administered at a Constant Dose for at Least 8 Weeks Prior to Pre-Visit (Pre-Screening) • Metformin (≥1,000 mg/day) and gemigliptin (50 mg/day) were co-administered during the 8-week stabilization period. […] 4) when Metformin (≥1,000 mg/Day) and Gemigliptin (50 mg/Day) were Co-Administered at Constant Doses for at Least 8 Weeks Prior to Pre-Visit (Prescreening) • Without a separate stabilization period, Pre-visit (pre-screening) was Visit 1 (screening).
Subjects who met the inclusion/exclusion criteria continued to receive metformin and gemigliptin while receiving a placebo of the clinical trial drug in a single-blind (subject-blinded) state for a 2-week run-in period.
Here, the randomized subjects were stratified according to the administration therapy (co-administration with two or less agents (one or two agents) or three or more agents) of a conventional hypoglycemic agent (before washout of another hypoglycemic agent) within 24 weeks prior to obtaining written informed consent and by an HbA1c value (<8% or ≥8%) at Visit 1 (screening) measured in the central laboratory.
The randomized subjects were administered two tablets of the clinical trial drug corresponding to each administration group once a day, and then visited the institution at weeks 6, 12, 18, and 24 during the 24-week administration period to conduct efficacy and safety assessments. In addition, during the clinical trial period, they were instructed to exercise regularly and control their diet without changing their daily life patterns.
• 1) Change in HbA1c at week 24 after administration of clinical trial drug compared to Visit 2 (randomization)
• 1) Change in HbA1c at each time point of weeks 6, 12, and 18 after administration of clinical trial drug compared to Visit 2 (randomization) • 2) Change in FPG at each time point of weeks 6, 12, 18, and 24 after administration of clinical trial drug compared to Visit 2 (randomization) • 3) Proportion of subjects achieving HbA1c<7% at each time point of weeks 6, 12, 18, and 24 after administration of clinical trial drug • 4) Proportion of subjects achieving HbA1c<6.5% at each time point of weeks 6, 12, 18, and 24 after administration of clinical trial drug • 5) Proportion of subjects achieving therapeutic response (HbA1c change (HbA1c at Visit 2—HbA1c at each evaluation time point)>0.5% or HbA1c<7% at each evaluation time point compared to Visit 2 (randomization)) at each time point of weeks 6, 12, 18, and 24 after administration of clinical trial drug • 6) Proportion of subjects achieving therapeutic response (HbA1c change (HbA1c at Visit 2—HbA1c at each evaluation time point)>0.7% or HbA1c<7% at each evaluation time point compared to Visit 2 (randomization)) at each time point of weeks 6, 12, 18, and 24 after administration of clinical trial drug • 7) Proportion of subjects achieving therapeutic response (HbA1c change (HbA1c at Visit 2—HbA1c at each evaluation time point)>1% or HbA1c<7% at each evaluation time point compared to Visit 2 (randomization)) at each time point of weeks 6, 12, 18, and 24 after administration of clinical trial drug

[1] = week 12, per-protocol set, enavogliflozin 0.3 mg, dapagliflozin 10 mg
[2] = week 18, modified per-protocol set 1, enavogliflozin 0.3 mg, dapagliflozin 10 mg
[3] = week 18, modified per-protocol set 2
[4] = week 18, modified per-protocol set 2, enavogliflozin 0.3 mg, dapagliflozin 10 mg
[5] = week 18, per-protocol set, enavogliflozin 0.3 mg, dapagliflozin 10 mg

For `CCOc1ccc(Cc2cc([C@@H]3O[C@H](CO)[C@@H](O)[C@H](O)[C@H]3O)ccc2Cl)cc1` [Dapagliflozin, reference compound], the “Subjects achieving HbA1c target of <7%, %” value [1] was 63.41%, the “body weight, Median” value [1] was 63.20 kg and the “Subjects achieving therapeutic glycemic response 1, %” value (week 12, per-protocol set, response 1 = HbA1c change >0.5% or HbA1c <7%, enavogliflozin 0.3 mg, dapagliflozin 10 mg) was 89.43%. For the same molecule, the “Subjects achieving therapeutic glycemic response 2, %” value (week 12, per-protocol set, response 2 = HbA1c change >0.7% or HbA1c <7%, enavogliflozin 0.3 mg, dapagliflozin 10 mg) was 82.11%, the “Subjects achieving therapeutic glycemic response 3, %” value (week 12, per-protocol set, response 3 = HbA1c change >1% or HbA1c <7%, enavogliflozin 0.3 mg, dapagliflozin 10 mg) was 73.98% and the “FPG change from baseline, LS mean (SE)” value (week 18) was −23.55(1.59) mg/dL. For the same molecule, the “HDL-C change from baseline, LS mean (SE)” value (week 18) was 3.42(0.62) mg/dL, the “HOMA-IR change from baseline, LS mean (SE)” value (week 18) was −1.01(0.11) and the “HOMA-β change from baseline, LS mean (SE)” value (week 18) was 4.49(2.22). For the same molecule, the “HbA1c change from baseline, LS mean (SE)” value (week 18) was −0.75(0.04) % p, the “LDL-C change from baseline, LS mean (SE)” value (week 18) was 1.38(1.59) mg/dL and the “UACR change from baseline, LS mean (SE)” value (week 18) was −8.90(3.79) g/kg. For the same molecule, the “UGCR change from baseline, LS mean (SE)” value (week 18) was 45.40(2.27) mg/mg, the “adiponectin change from baseline, LS mean (SE)” value (week 18) was 0.36(0.32) μg/mL and the “body weight change from baseline, LS mean (SE)” value (week 18) was −3.01(0.23) kg. For the same molecule, the “diastolic blood pressure change from baseline, LS mean (SE)” value (week 18) was −2.42(0.68) mmHg, the “fasting C-peptide change from baseline, LS mean (SE)” value (week 18) was −0.06(0.02) ng/mL and the “leptin change from baseline, LS mean (SE)” value (week 18) was −1.06(0.51) ng/ml. The “systolic blood pressure change from baseline, LS mean (SE)” value (week 18) was −5.16(0.88) mmHg, the “total cholesterol change from baseline, LS mean (SE)” value (week 18) was 3.66(1.88) mg/dL and the “triglyceride change from baseline, LS mean (SE)” value (week 18) was −12.39(4.34) mg/dL. For the same molecule, the “Change from baseline in HDL-C, ANCOVA LS mean” value [2] was 3.42 mg/dL, the “Change from baseline in HDL-C, Mean” value [2] was 3.57 mg/dL and the “Change from baseline in HDL-C, Median” value [2] was 3.00 mg/dL. The “Change from baseline in LDL-C, ANCOVA LS mean” value [2] was 1.38 mg/dL, the “Change from baseline in LDL-C, Mean” value [2] was 0.93 mg/dL and the “Change from baseline in LDL-C, Median” value [2] was 1.50 mg/dL. The “Change from baseline in total cholesterol, ANCOVA LS mean” value [2] was 3.66 mg/dL, the “Change from baseline in total cholesterol, Mean” value [2] was 2.51 mg/dL and the “Change from baseline in total cholesterol, Median” value [2] was 1.00 mg/dL. The “Change from baseline in triglycerides, ANCOVA LS mean” value [2] was -12.39 mg/dL, the “Change from baseline in triglycerides, Mean” value [2] was -17.31 mg/dL and the “Change from baseline in triglycerides, Median” value [2] was -8.50 mg/dL. For the same molecule, the “Fasting HDL-C, Mean” value [2] was 50.99 mg/dL, the “Fasting HDL-C, Median” value [2] was 51.00 mg/dL and the “Fasting LDL-C, Mean” value [2] was 78.33 mg/dL. For the same molecule, the “Fasting LDL-C, Median” value [2] was 73.00 mg/dL, the “Fasting total cholesterol, Mean” value [2] was 146.31 mg/dL and the “Fasting triglycerides, Mean” value [2] was 115.18 mg/dL. For the same molecule, the “Fasting triglycerides, Median” value [2] was 103.00 mg/dL, the “fasting Total cholesterol, Median” value [2] was 141.00 mg/dL and the “Change from baseline in diastolic blood pressure, ANCOVA LS mean” value [3] was −2.42 mmHg. For the same molecule, the “Change from baseline in diastolic blood pressure, Mean” value [3] was −2.12 mmHg, the “Change from baseline in diastolic blood pressure, Median” value [3] was −2.00 mmHg and the “Diastolic blood pressure, Mean” value [3] was 71.75 mmHg. For the same molecule, the “Diastolic blood pressure, Median” value [3] was 71.00 mmHg, the “Change from baseline in systolic blood pressure, ANCOVA LS mean” value [4] was −5.16 mmHg and the “Change from baseline in systolic blood pressure, Mean” value [4] was −4.63 mmHg. For the same molecule, the “Change from baseline in systolic blood pressure, Median” value [4] was −4.00 mmHg, the “Systolic blood pressure, Mean” value [4] was 119.31 mmHg and the “Systolic blood pressure, Median” value [4] was 118.00 mmHg. For the same molecule, the “Adiponectin, Mean” value (week 18, per-protocol set) was 6.65 µg/mL, the “Adiponectin, Median” value (week 18, per-protocol set) was 6.21 µg/mL and the “Change from baseline in HOMA-IR, ANCOVA LS mean” value (week 18, per-protocol set) was −1.01. The “Change from baseline in HOMA-IR, Mean” value (week 18, per-protocol set) was −1.00, the “Change from baseline in HOMA-IR, Median” value (week 18, per-protocol set) was −0.75 and the “Change from baseline in HOMA-β, ANCOVA LS mean” value (week 18, per-protocol set) was 4.49. The “Change from baseline in HOMA-β, Mean” value (week 18, per-protocol set) was 5.32, the “Change from baseline in HOMA-β, Median” value (week 18, per-protocol set) was 2.20 and the “Change from baseline in UACR, ANCOVA LS mean” value (week 18, per-protocol set) was -8.90 g/kg. For the same molecule, the “Change from baseline in UACR, Mean” value (week 18, per-protocol set) was -8.84 g/kg, the “Change from baseline in UACR, Median” value (week 18, per-protocol set) was 0.20 g/kg and the “Change from baseline in UGCR, ANCOVA LS mean” value (week 18, per-protocol set) was 45.40 mg/mg. The “Change from baseline in UGCR, Mean” value (week 18, per-protocol set) was 43.29 mg/mg, the “Change from baseline in UGCR, Median” value (week 18, per-protocol set) was 41.28 mg/mg and the “Change from baseline in adiponectin, ANCOVA LS mean” value (week 18, per-protocol set) was 0.36 µg/mL. For the same molecule, the “Change from baseline in adiponectin, Mean” value (week 18, per-protocol set) was 0.30 µg/mL, the “Change from baseline in adiponectin, Median” value (week 18, per-protocol set) was 0.36 µg/mL and the “Change from baseline in leptin, ANCOVA LS mean” value (week 18, per-protocol set) was -1.06 ng/mL. For the same molecule, the “Change from baseline in leptin, Mean” value (week 18, per-protocol set) was -1.36 ng/mL, the “Change from baseline in leptin, Median” value (week 18, per-protocol set) was -0.75 ng/mL and the “HOMA-IR (insulin resistance), Mean” value (week 18, per-protocol set) was 1.85. For the same molecule, the “HOMA-IR (insulin resistance), Median” value (week 18, per-protocol set) was 1.53, the “HOMA-β (beta-cell function), Mean” value (week 18, per-protocol set) was 45.79 and the “HOMA-β (beta-cell function), Median” value (week 18, per-protocol set) was 36.80. For the same molecule, the “Leptin, Mean” value (week 18, per-protocol set) was 9.52 ng/mL, the “Leptin, Median” value (week 18, per-protocol set) was 7.80 ng/mL and the “UACR, Mean” value (week 18, per-protocol set) was 25.86 g/kg. The “UACR, Median” value (week 18, per-protocol set) was 10.20 g/kg, the “UGCR, Mean” value (week 18, per-protocol set) was 44.82 mg/mg and the “UGCR, Median” value (week 18, per-protocol set) was 42.32 mg/mg. The “Body weight, Mean” value [5] was 64.37 kg, the “Change from baseline in FPG, ANCOVA LS mean” value [5] was -23.55 mg/dL and the “Change from baseline in FPG, Mean” value [5] was -24.80 mg/dL. For the same molecule, the “Change from baseline in FPG, Median” value [5] was -19.00 mg/dL, the “Change from baseline in HbA1c, ANCOVA LS mean” value [5] was −0.75 % p and the “Change from baseline in HbA1c, Mean” value [5] was −0.79 % p. The “Change from baseline in HbA1c, Median” value [5] was −0.72 % p, the “Change from baseline in body weight, ANCOVA LS mean” value [5] was -3.01 kg and the “Change from baseline in body weight, Mean” value [5] was -2.84 kg. The “Change from baseline in body weight, Median” value [5] was -2.70 kg, the “Change from baseline in fasting C-peptide, ANCOVA LS mean” value [5] was -0.06 ng/mL and the “Change from baseline in fasting C-peptide, Mean” value [5] was -0.06 ng/mL. The “Change from baseline in fasting C-peptide, Median” value [5] was -0.07 ng/mL, the “FPG, Mean” value [5] was 115.72 mg/dL and the “FPG, Median” value [5] was 114.00 mg/dL. The “Fasting C-peptide, Mean” value [5] was 0.63 ng/mL, the “Fasting C-peptide, Median” value [5] was 0.60 ng/mL and the “HbA1c, Mean” value [5] was 7.04%. For the same molecule, the “HbA1c, Median” value [5] was 6.97%, the “Subjects achieving HbA1c target of <6.5%, (%)” value [5] was 12.20% and the “Subjects achieving HbA1c target of <7%, %” value [5] was 56.10%.
